Laboratory results from PMC10816875, “Synthesis, Characterization, Cytotoxicity, Cellular Imaging, Molecular Docking, and ADMET Studies of Piperazine-Linked 1,8-Naphthalimide-Arylsulfonyl Derivatives” (International Journal of Molecular Sciences, 2024).
Read-outs that look alike come from different tables or passages of the source.

Experiments:
Assay type in all cases: cell-based
3T3 fibroblast cell line = experiment: CCK-8 viability of 3T3 fibroblast cells; details: 1 μg/mL, 72 h
Description: (§1) For the anticancer studies, we established a stable cell culture for mouse breast cancer cell line 4T1 (ATCC: CRL-2539) cultured in the medium composition RPMI-1640 (Gibco; Grand Island, New York, USA), 10% fetal bovine serum (Gibco, Mexico), 4.5 g/L glucose, 1.5 g/L NaHCO3, 1 mM sodium pyruvate (Gibco; Grand Island, New York, NY, USA), and 1% penicillin–streptomycin (10,000 U/mL). We observed typical cell morphology after the IV passage of cells unfrozen from liquid nitrogen. Then, the cells were used for the subsequent anticancer experiment. A non-cancerous fibroblast cell line (3T3/NIH, ATCC: CRL-1658) was employed for the fluorescence imaging assay. The cells were cultured in 90% Dulbecco’s modified Eagle’s medium with 4 mM L-glutamine, 2 mM sodium pyruvate, 1% non-essential amino acid, 1% penicillin/streptomycin/amphotericin, and 10% fetal bovine serum.
(§2) A total of 5.0 × 10^4 of 3T3 cells per well in a 96-well plate were co-cultured with the 1.0 μg/mL of SA samples for 72 h. The viability of the 3T3 cells was assayed by using 10% CCK-8 reagent for 60 min to determine the toxicity of the SA samples. Afterwards, the cells were fixed with glutaraldehyde, followed by staining with 0.1 μg/mL of 4′,6-diamidino-2-phenylindole (DAPI) for the imaging of the nuclei. An inverted fluorescent optical microscope (Nikon, Eclipse Ti-S, Japan) was utilized. The fluorescent light source was Nikon Intensilight C-HGFI, and two fluorescent filter cubes (Ex = 340–380 nm, Em = 435–485 nm, corresponding to DAPI, and Ex = 465–495 nm, Em = 512–558 nm, corresponding to SA samples) were used to observe the distribution of SA samples in the cytoplasm. A scientific-grade CCD (Dhyana, model: 400 BSI, Tucsen, Fuzhou, China) was used to record the images. The magnification of the OM was 200×. The original fluorescent images were recorded in greyscale. ImageJ software (an open-source software, NIH Image, version 1.54f, Bethesda, MD, USA) was employed to merge and convert two fluorescent images into visible colors, e.g., blue for cell nuclei and green for SA1–SA7 samples.

[1] = CCK-8 viability of 3T3 fibroblast cells; details: mouse, read-out: % Cell viability against 3T3 fibroblast cell line
Description: as §1, §2

[2] = test system: mouse breast cancer 4T1 cell line; experiment: MTT cytotoxicity assay on 4T1 breast cancer cells; details: 24 h
Description: as §1
A cellular viability assay was employed for the cytotoxicity of SA samples. […] A cell viability reagent (MTT, Sigma-Aldrich, St Louis, MI, USA) containing yellow tetrazolium salt (3-(4,5-dimethylthiazol-2-yl)-2,5-diphenyltetrazolium bromide) can be converted to purple formazan salt to indicate the cell viability. The 4T1 breast cancer cells were cultured at a density of 5.0 × 10^3 cells per well in 96-well plates. The cells were treated with SA samples for 24 h. The control groups were abbreviated as Cont (100% culture medium), representing normal cell culture; PC (20% DMSO and 80% culture medium), representing toxic condition; and NC (0.1% DMSO and 99.9%), representing minimum toxic condition. MTT reagent was added to 96-well plates to measure the cytotoxic effect of the SA compounds on 4T1 cells.

| Structure (SMILES) | viability at 72 h, 1 μg/mL [1] | cytotoxicity against 4T1 breast cancer cells (in words) [2] | also measured |
| --- | --- | --- | --- |
| O=C1c2cccc3cccc(c23)C(=O)N1CCN1CCN(S(=O)(=O)c2ccc([N+](=O)[O-])cc2)CC1 [SA3, 2-(2-(4-((4-Nitrophenyl)sulfonyl)piperazin-1-yl)ethyl)-1H-benzo[de]isoquinoline-1,3 (2H)-dione] | 82 to 95% | low toxicity | % Cell viability against 3T3 fibroblast cell line (3T3 fibroblast cell line): relatively high viability |
| N#Cc1ccc(S(=O)(=O)N2CCN(CCN3C(=O)c4cccc5cccc(c45)C3=O)CC2)cc1 [SA7, 4-((4-(2-(1,3-Dioxo-1H-benzo[de]isoquinolin-2(3H)-yl)ethyl)piperazin-1-yl)sulfonyl)benzonitrile] | 82 to 95% | – | – |
| O=C1c2cccc3cccc(c23)C(=O)N1CCN1CCN(S(=O)(=O)c2ccc3ccccc3c2)CC1 [SA2, 2-(2-(4-(Naphthalen-2-ylsulfonyl)piperazin-1-yl)ethyl)-1H-benzo[de]isoquinoline-1,3 (2H)-dione] | 82 to 95% | – | – |
| O=C1c2cccc3cccc(c23)C(=O)N1CCN1CCN(S(=O)(=O)c2cccs2)CC1 [SA5, 2-(2-(4-(Thiophen-2-ylsulfonyl)piperazin-1-yl)ethyl)-1H-benzo[de]isoquinoline-1,3(2H)-dione] | 82 to 95% | most potent (cytotoxic) compound | viability at 0.7 µM ([2]; Mus musculus, 4T1, 0.7 μM): < 80% |
| O=C1c2cccc3cccc(c23)C(=O)N1CCN1CCN(S(=O)(=O)c2cccnc2)CC1 [SA6, 2-(2-(4-(Pyridin-3-ylsulfonyl)piperazin-1-yl)ethyl)-1H-benzo[de]isoquinoline-1,3(2H)-dione] | 82 to 95% | good anticancer activity | – |
| O=C1c2cccc3cccc(c23)C(=O)N1CCN1CCN(S(=O)(=O)c2ccccc2[N+](=O)[O-])CC1 [SA1, 2-(2-(4-((2-Nitrophenyl)sulfonyl)piperazin-1-yl)ethyl)-1H-benzo[de]isoquinoline-1,3 (2H)-dione] | – | – | viability at 72 h, 1 μg/mL ([1]; 3T3/NIH fibroblast cells (non-cancerous)): 82 to 95% |
| O=C1c2cccc3cccc(c23)C(=O)N1CCN1CCN(S(=O)(=O)c2ccc(Cl)s2)CC1 [SA4, 2-(2-(4-((5-Chlorothiophen-2-yl)sulfonyl)piperazin-1-yl)ethyl)-1H-benzo[de]isoquinoline-1,3(2H)-dione] | 82 to 95% | – | – |
